According to patent publication US10738051B2, “β-lactamase inhibitors” (priority 2016, dated 2020):

How the values were obtained:
Test in all cases: In vitro synergistic inhibitory concentration (SIC) assay
Type in all cases: cell-based
[1] = system: E. coli ATCC BAA-2523 (OXA-48); settings: Escherichia coli, ATCCBAA2523, 37° C. 20 hours, read-out: minimum inhibitory concentration, used alone
Protocol: (§1) 2) 30 μL dimethyl sulfoxide was added to columns 2-12 of the 96-V well plate. 60 μL prepared ceftazidime was added to column 1. 30 μL ceftazidime was transferred from column 1 to column 2 and mixed with a pipette. The same operation was continued until column 11, and 30 μL of the mixture in column 11 was discarded. This was the compound mother plate.
(§2) Mix the liquid in the mother plate with a pipette.
(§3) 4) One day before the experiment, the bacterial glycerol stock which was stored in a −80° C. refrigerator was streaked on a trypticase soy agar plate (TSA), and the plate was incubated in a 37° C. incubator overnight. On the day of the experiment, the monoclonal bacterial was suspended in physiological saline and the turbidity of which was adjusted to 0.5 McFarland standard, corresponding to 1×10^8 CFU/ml. This suspension was diluted 100-fold to 1×10^6 CFU/mL with caton-adjusted Mueller-Hnton broth (CAMHB), which was used as an inoculation fluid.
(§4) 5) a 96-U plate was used as a test plate. Firstly, adding 98 μL CAMHB to each well of the test plate and transferring 2 μL solution in the mother plate to the test plate. 100 μL inoculation fluid was added to each well of the test plate.
(§5) 6) The test plate was incubated at 37° C. for 20 hours.
(§6) The above-mentioned method was also used to determine the antibacterial activity of the test compound or the antibiotic when used alone.

[2] = system: K. pneumoniae ATCC 51503 (TEM-10/12); settings: Klebsiella pneumoniae, ATCC51503, 37° C. 20 hours, read-out: minimum inhibitory concentration, used alone
Protocol: as §1, §2, §3, §4, §5, §6

[3] = system: K. pneumoniae ATCC 51504 (TEM-10); settings: Klebsiella pneumoniae, ATCC51504, 37° C. 20 hours, read-out: minimum inhibitory concentration, used alone
Protocol: as §1, §2, §3, §4, §5, §6

[4] = system: K. pneumoniae ATCC BAA-1705 (KPC); settings: Klebsiella pneumoniae, ATCCBAA1705, 37° C. 20 hours, read-out: minimum inhibitory concentration, used alone
Protocol: as §1, §2, §3, §4, §5, §6

[5] = system: K. pneumoniae ATCC BAA-1898 (KPC); settings: Klebsiella pneumoniae, ATCCBAA1898, 37° C. 20 hours, read-out: minimum inhibitory concentration, used alone
Protocol: as §1, §2, §3, §4, §5, §6

[6] = system: K. pneumoniae ATCC BAA-1899 (KPC); settings: Klebsiella pneumoniae, ATCCBAA1899, 37° C. 20 hours, read-out: minimum inhibitory concentration, used alone
Protocol: as §1, §2, §3, §4, §5, §6

[7] = system: K. pneumoniae ATCC BAA-205 (TEM-1/SHV-1/SHV-12); settings: Klebsiella pneumoniae, ATCCBAA205, 37° C. 20 hours, read-out: minimum inhibitory concentration, used alone
Protocol: as §1, §2, §3, §4, §5, §6

[8] = system: K. pneumoniae ATCC BAA-2524 (OXA-48); settings: Klebsiella pneumoniae, ATCCBAA2524, 37° C. 20 hours, read-out: minimum inhibitory concentration, used alone
Protocol: as §1, §2, §3, §4, §5, §6

[9] = system: K. pneumoniae ATCC-700603 (SHV-18); settings: Klebsiella pneumoniae, ATCC700603, 37° C. 20 hours, read-out: minimum inhibitory concentration, used alone
Protocol: as §1, §2, §3, §4, §5, §6

For `N=C(N)NOCCONC(=O)[C@@H]1CC[C@@H]2CN1C(=O)N2OS(=O)(=O)O` [Compound 1], the MIC [1] was 8 µg/mL, the MIC [2] was greater than 128 µg/mL and the MIC [3] was greater than 128 µg/mL. The MIC [4] was 128 µg/mL, the MIC [5] was greater than 128 µg/mL and the MIC [6] was greater than 128 µg/mL. It also gave an MIC [7] of 128 µg/mL, an MIC [8] greater than 128 µg/mL and an MIC [9] greater than 128 µg/mL.
